Counter-ions that a name gives are not always drawn.

A short description of the first data set: in vitro. The following applies: PAMPA, PAMPA-BBB Pe(10^-6 cm/sec). On the technique in general: The PAMPA barrier holds no transporters, so it reflects passive diffusion.
Regarding `CC[C@H](C)C(=O)O[C@H]1C[C@H](O)C=C2C=C[C@H](C)[C@H](CC[C@@H](O)C[C@@H](O)CC(=O)O)[C@H]21` [PRAVASTATIN SODIUM], the Papp was under 1 ×10⁻⁶ cm/s. As to `COc1ccc(C[C@H](N)C(=O)N[C@@H]2[C@@H](CO)OC(n3cnc4c(N(C)C)ncnc43)[C@@H]2O)cc1` (some centres unmarked) [PUROMYCIN MONOHYDROCHLORIDE], the Papp was under 1 ×10⁻⁶ cm/s. Take `CNCC(O)c1ccc(O)c(O)c1` (centres unmarked) [RACEPINEPHRINE HYDROCHLORIDE]: the Papp is under 1 ×10⁻⁶ cm/s. The same measure, in the same setting: next, `Cc1cc2nc3c(=O)[nH]c(=O)nc-3n(C[C@H](O)[C@H](O)[C@H](O)CO)c2cc1C` [RIBOFLAVIN]: under 1 ×10⁻⁶ cm/s; `CO[C@H]1/C=C/O[C@@]2(C)Oc3c(C)c(O)c4c(O)c(c(/C=N/N5CCN(C)CC5)c(O)c4c3C2=O)NC(=O)/C(C)=C\C=C\[C@H](C)[C@H](O)[C@@H](C)[C@@H](O)[C@@H](C)[C@H](OC(C)=O)[C@@H]1C` [Rifampicin]: 3.7 ×10⁻⁶ cm/s.

The data set is the same for the next values; noted with them: PAMPA, PAMPA-BBB Pe(10^-6 cm/sec), Table S3: compounds exhibiting low PAMPA-BBB permeability.
As for `O=C1C=C2C(=CCOC2O)O1` (centres unmarked) [PATULIN], the Papp is under 1 ×10⁻⁶ cm/s. In turn, `COc1ccc(-c2cc(=O)c3c(O)c(OC)c(O[C@@H]4O[C@H](CO[C@@H]5O[C@@H](C)[C@H](O)[C@@H](O)[C@H]5O)[C@@H](O)[C@H](O)[C@H]4O)cc3o2)cc1` [PECTOLINARIN] showed an apparent permeability coefficient (Papp) of under 1 ×10⁻⁶ cm/s. Consider `Oc1ccc(-c2[o+]c3cc(O)cc(O)c3cc2O)cc1` [PELARGONIDIN], for which the Papp was under 1 ×10⁻⁶ cm/s. With `O=C(OC[C@H]1O[C@@H](OC(=O)c2cc(O)c(O)c(O)c2)[C@H](OC(=O)c2cc(O)c(O)c(O)c2)[C@@H](OC(=O)c2cc(O)c(O)c(O)c2)[C@@H]1OC(=O)c1cc(O)c(O)c(O)c1)c1cc(O)c(O)c(O)c1` [PENTAGALLOYLGLUCOSE], the Papp was 3.2 ×10⁻⁶ cm/s. `O=C(CCc1ccc(O)cc1)c1c(O)cc(O)cc1O` [PHLORETIN] showed a Papp of 2.2 ×10⁻⁶ cm/s. `O=C(CCc1ccc(O)cc1)c1c(O)cc(O)cc1O[C@@H]1O[C@H](CO)[C@@H](O)[C@H](O)[C@H]1O` [PHLORIDZIN]: the Papp came out at 1.4 ×10⁻⁶ cm/s. Same read-out and setting: under `CC1=C[C@H]2[C@@]3(O)[C@H](C)[C@@H](O)[C@]4(O)[C@H]([C@@H]3C=C(CO)C[C@]2(O)C1=O)C4(C)C` [PHORBOL] stands under 1 ×10⁻⁶ cm/s; under `CC(=O)c1ccc(O[C@@H]2O[C@H](CO)[C@@H](O)[C@H](O)[C@H]2O)cc1` [PICEIN], under 1 ×10⁻⁶ cm/s.

The molecule `O=C(O)/C=C/C=C/c1ccc2c(c1)OCO2` [PIPERIC ACID] displayed a Papp of under 1 ×10⁻⁶ cm/s. Turning to `O=C(O)c1ccc2c(c1)OCO2` [PIPERONYLIC ACID], the Papp was under 1 ×10⁻⁶ cm/s. `OC[C@H]1O[C@@H](Oc2cc(O)cc(/C=C/c3ccc(O)cc3)c2)[C@H](O)[C@@H](O)[C@@H]1O` [POLYDATIN] had a Papp of under 1 ×10⁻⁶ cm/s. The same measure, in the same setting: next, `COc1ccc([C@@H]2CC(=O)c3c(O)cc(O[C@@H]4O[C@H](CO)[C@@H](O)[C@H](O)[C@H]4O[C@@H]4O[C@@H](C)[C@H](O)[C@@H](O)[C@H]4O)cc3O2)cc1` [PONCIRIN]: under 1 ×10⁻⁶ cm/s. Turning to `C[C@@H]1O[C@@H](O[C@@H]2C=C3CC[C@@H]4[C@H](CC[C@]5(C)[C@@H](c6ccc(=O)oc6)CC[C@]45O)[C@@]3(C)CC2)[C@H](O)[C@H](O)[C@H]1O` [PROSCILLARIDIN], the Papp came out at 1.5 ×10⁻⁶ cm/s.

`CCCCC[C@H](O)/C=C/C1=C(CCCCCCC(=O)O)C(=O)CC1` [PROSTAGLANDIN B1] returned a Papp of under 1 ×10⁻⁶ cm/s.

Molecule `CC(=O)O[C@@]12C[C@@H](C)[C@@]3(O)[C@@H](C=C(CO)C[C@]4(O)C(=O)C(C)=C[C@@H]34)[C@@H]1C2(C)C` [PROSTRATIN] showed a Papp of under 1 ×10⁻⁶ cm/s. Turning to `O=C(O)c1ccc(O)c(O)c1` [PROT[…]], the Papp is under 1 ×10⁻⁶ cm/s.

As for `O=c1c(-c2ccc(O)cc2)coc2c([C@@H]3O[C@H](CO)[C@@H](O)[C@H](O)[C@H]3O)c(O)ccc12` [PUERARIN], the Papp is under 1 ×10⁻⁶ cm/s. The molecule `O=C(O)c1cccc(O)c1O` [PYR[…]] came in with a Papp of under 1 ×10⁻⁶ cm/s.

For `COc1ccc2[nH]c3c(c2c1)CCNC3` [Pinoline], the Papp was found to be 2.5 ×10⁻⁶ cm/s. For the molecule `O=c1c(O)c(-c2ccc(O)c(O)c2)oc2cc(O)cc(O)c12` [QUERCETIN], the Papp is under 1 ×10⁻⁶ cm/s.

As for `C[C@H]1O[C@@H](Oc2c(-c3ccc(O)c(O)c3)oc3cc(O)cc(O)c3c2=O)[C@H](O)[C@H](O)[C@H]1O` [QUERCITROSIDE], the Papp is under 1 ×10⁻⁶ cm/s. On to `O=C(O)[C@H]1O[C@@H](Oc2c(-c3ccc(O)c(O)c3)oc3cc(O)cc(O)c3c2=O)[C@H](O)[C@@H](O)[C@@H]1O` [QUERCITURONE], for which the Papp was 4.2 ×10⁻⁶ cm/s. The molecule `O=C(O)c1cccnc1C(=O)O` [QUINOLINIC ACID] had a Papp of under 1 ×10⁻⁶ cm/s.

`CC(=O)CCc1ccc(O)cc1` [RASPBERRY KETONE] yielded a Papp of 4.1 ×10⁻⁶ cm/s.

On to `Oc1ccc(/C=C/c2cc(O)cc(O)c2)cc1` [RESVERATROL], for which the apparent permeability (Papp) came out at 1.8 ×10⁻⁶ cm/s.

With `C[C@@H]1O[C@@H](O[C@H]2[C@H](Oc3cc(O)c4c(=O)cc(-c5ccc(O)cc5)oc4c3)O[C@H](CO)[C@@H](O)[C@@H]2O)[C@H](O)[C@H](O)[C@H]1O` [RHOIFOLIN], the Papp is under 1 ×10⁻⁶ cm/s. On the same count and under the same terms, next, `CC[C@H]1CN2CC[C@]3(C(=O)Nc4ccccc43)[C@@H]2C[C@@H]1/C(=C\OC)C(=O)OC` [RHYNCHOPHYLLINE]: 6.5 ×10⁻⁶ cm/s. `CC(C)=CCNc1ncnc2c1ncn2[C@@H]1O[C@H](CO)[C@@H](O)[C@H]1O` [RIBOPRINE] came in with a Papp of under 1 ×10⁻⁶ cm/s. Same read-out and setting: next, `CO[C@H]1/C=C/O[C@@]2(C)Oc3c(C)c(O)c4c(O)c(cc(O)c4c3C2=O)NC(=O)/C(C)=C\C=C\[C@H](C)[C@H](O)[C@@H](C)[C@@H](O)[C@@H](C)[C@H](OC(C)=O)[C@@H]1C` [RIFAMYCIN]: under 1 ×10⁻⁶ cm/s; `CNCC/C=C/c1cccnc1` [RIVANICLINE]: 7.1 ×10⁻⁶ cm/s. Molecule `O=c1c(O)c(-c2cc(O)c(O)c(O)c2)oc2cc(O)ccc12` [ROBINETIN] had a Papp of 1 ×10⁻⁶ cm/s. Turning to `OC[C@H]1O[C@@H](OC[C@H]2O[C@@H](OC/C=C/c3ccccc3)[C@H](O)[C@@H](O)[C@@H]2O)[C@@H](O)[C@@H]1O` [ROSARIN], the Papp was under 1 ×10⁻⁶ cm/s. Molecule `O[C@@H]1[C@@H](O)[C@H](OC/C=C/c2ccccc2)O[C@H](CO[C@@H]2OC[C@H](O)[C@H](O)[C@H]2O)[C@H]1O` [ROSAVIN] had a Papp of under 1 ×10⁻⁶ cm/s. On to `O=C(/C=C/c1ccc(O)c(O)c1)O[C@H](Cc1ccc(O)c(O)c1)C(=O)O` [ROSMARINIC ACID], for which the Papp was determined as 3.4 ×10⁻⁶ cm/s.

With `C[C@@H]1O[C@@H](OC[C@H]2O[C@@H](Oc3c(-c4ccc(O)c(O)c4)oc4cc(O)cc(O)c4c3=O)[C@H](O)[C@@H](O)[C@@H]2O)[C@H](O)[C@H](O)[C@H]1O` [RUTIN], the apparent permeability coefficient (Papp) is under 1 ×10⁻⁶ cm/s. Molecule `CNc1ccccc1C(=O)N1CCc2c([nH]c3ccccc23)C1=O` [Rhetsinine] gave a Papp of 2.6 ×10⁻⁶ cm/s. In turn, `C[S+](CC[C@H](N)C(=O)[O-])C[C@H]1O[C@@H](n2cnc3c(N)ncnc32)[C@H](O)[C@@H]1O` (some centres unmarked) [S-ADENOSYLMETHIONINE] registered a Papp of under 1 ×10⁻⁶ cm/s. `OCC(O)Cc1ccc2c(c1)OCO2` (centres unmarked) [SAFROLGLYCOL] gave a Papp of 1.7 ×10⁻⁶ cm/s. For the molecule `O=C(O)c1ccccc1O` [SALICYLIC ACID], the Papp was 1.8 ×10⁻⁶ cm/s. The molecule `C[C@@H]1NCCc2cc(O)c(O)cc21` [SALSOLINOL] yielded a Papp of under 1 ×10⁻⁶ cm/s.

`C[n+]1cc2c3c(ccc2c2ccc4cc5c(cc4c21)OCO5)OCO3` [SANGUINARIUM CHLORIDE]: the apparent permeability coefficient (Papp) is under 1 ×10⁻⁶ cm/s. On the same count and under the same terms, under `COc1cc(C[C@@H](CO)[C@H](CO)Cc2ccc(O)c(OC)c2)ccc1O` [SECOISOLARICIRESINOL] stands under 1 ×10⁻⁶ cm/s.

Regarding `O=C(O)c1cc(O)c2c(c1)[C@@H]([C@H]1c3cc(C(=O)O)cc(O)c3C(=O)c3c(O[C@@H]4O[C@H](CO)[C@@H](O)[C@H](O)[C@H]4O)cccc31)c1cccc(O[C@@H]3O[C@H](CO)[C@@H](O)[C@H](O)[C@H]3O)c1C2=O` [SENNOSIDE B], the Papp was 3 ×10⁻⁶ cm/s. In turn, `C[C@H](O)C(=O)C1=Nc2c(nc(N)[nH]c2=O)NC1` [SEPIAPTERIN] gave a Papp of 1.6 ×10⁻⁶ cm/s. As to `NCCc1c[nH]c2ccc(O)cc12` [SEROTONIN HYDROCHLORIDE], the Papp was under 1 ×10⁻⁶ cm/s.

The same data set, now with this note: PAMPA, PAMPA-BBB Pe, Table S2: compounds exhibiting moderate to high PAMPA-BBB permeability.
Consider `CC(C)(O)[C@H]1O[C@H]2CC[C@@]3(C)[C@@](O)(CC[C@H]4Cc5c([nH]c6ccccc56)[C@@]43C)C2=CC1=O` [PAXILLINE], for which the Papp was determined as 161 ×10⁻⁶ cm/s. On the same count and under the same terms, next, `CC(C)=CCOc1c2occc2cc2ccc(=O)oc12` [PENTOSALEN]: 195 ×10⁻⁶ cm/s; `CCCCCCCCCCCCCC(=O)O[C@@H]1[C@@H](C)[C@@]2(O)[C@@H](C=C(CO)C[C@]3(O)C(=O)C(C)=C[C@@H]23)[C@@H]2C(C)(C)[C@]12OC(C)=O` [PHORBOL MYRISTATE ACETATE]: 47 ×10⁻⁶ cm/s; `COc1cc2c(cc1OC)OC(C)(C)C=C2` [PRECOCENE II]: 159 ×10⁻⁶ cm/s. As to `C/C=C(\C)C(=O)O[C@@H]1c2c(ccc3ccc(=O)oc23)OC(C)(C)[C@@H]1OC(C)=O` [PTERYXINE], the Papp was found to be 205 ×10⁻⁶ cm/s. `Cn1c2cccc(=O)c-2nc2ccccc21` [PYOCYANINE] had a Papp of 299 ×10⁻⁶ cm/s. Molecule `O=[N+]([O-])c1c(Cl)cccc1-c1c[nH]cc1Cl` [PYRROLNITRIN] displayed a Papp of 159 ×10⁻⁶ cm/s. Regarding `COC(=O)C1=CO[C@@H](C)[C@H]2CN3CCc4c([nH]c5ccccc45)[C@@H]3C[C@H]12` [RAUBASINE HYDROCHLORIDE], the Papp turned out to be 125 ×10⁻⁶ cm/s. On the same count and under the same terms, under `C=C(C)[C@]12C[C@@H](C)[C@@]34O[C@](Cc5ccccc5)(O[C@@H]1[C@@H]3C=C(COC(=O)Cc1ccc(O)c(OC)c1)C[C@]1(O)C(=O)C(C)=C[C@@H]41)O2` [RESINIFERATOXIN] stands 38 ×10⁻⁶ cm/s. For `COc1ccc(/C=C/c2cc(O)cc(O)c2)cc1O` [RHAPONTIN GENIN], the Papp was found to be 70 ×10⁻⁶ cm/s. In turn, `O=c1c2ccccc2nc2n1CCc1c-2[nH]c2ccccc12` [RUTECARPINE] returned a Papp of 151 ×10⁻⁶ cm/s. Regarding `COC1=C[C@]23CCN(C)[C@H](Cc4ccc(OC)c(O)c42)C3=CC1=O` [SALUTARIDINE], the Papp was 11 ×10⁻⁶ cm/s.

`CC1=C2[C@H]3OC(=O)[C@@H](C)[C@@H]3CC[C@@]2(C)C=CC1=O` [SANTONINUM]: the Papp was determined as 49 ×10⁻⁶ cm/s. For the molecule `COc1ccc(-c2cc(=O)c3c(O)cc(O)c(-c4cc(-c5cc(=O)c6c(O)cc(OC)cc6o5)ccc4OC)c3o2)cc1` [SCIADOPITYSIN], the Papp was 20 ×10⁻⁶ cm/s. The same measure, in the same setting: next, `COc1ccc(-c2cc(=O)c3c(OC)c(OC)c(OC)cc3o2)cc1OC` [SINENSETIN]: 36 ×10⁻⁶ cm/s.

What is called Papp is the rate of passage across a membrane or cell layer, normalised by area and donor concentration.

These data come from PMC11876671, “Investigating blood–brain barrier penetration and neurotoxicity of natural products for central nervous system drug development” (Scientific Reports, 2025).
